Assay results published in the NIST ThermoML archive (doi:10.1016/j.jct.2007.11.010).
± gives the expanded uncertainty stated by the source.

Test: xn = mol fraction of the nth substance listed
Conditions: 101 kPa, Liquid

OCCN1CCOCC1 [4-morpholineethanol] + CC(C)O
mass density [kg/m3]
Conditions | 293.15 K | 298.15 K | 303.15 K | 313.15 K | 323.15 K
x1 = 0.0543 | 810.11 ± 0.88 | 806.22 ± 0.89 | 801.63 ± 0.9 | 792.98 ± 0.93 | 784.44 ± 0.96
x1 = 0.1127 | 835.5 ± 0.8 | 831.48 ± 0.82 | 826.84 ± 0.83 | 818.19 ± 0.86 | 809.79 ± 0.88
x1 = 0.1873 | 865.79 ± 0.72 | 861.61 ± 0.74 | 856.92 ± 0.75 | 848.29 ± 0.78 | 840.07 ± 0.8
x1 = 0.2468 | 888.39 ± 0.66 | 884.1 ± 0.7 | 879.38 ± 0.69 | 870.77 ± 0.72 | 862.71 ± 0.74
x1 = 0.2874 | 903.13 ± 0.63 | 898.77 ± 0.64 | 894.03 ± 0.65 | 885.45 ± 0.68 | 877.5 ± 0.7
x1 = 0.3248 | 916.03 ± 0.59 | 911.6 ± 0.6 | 906.84 ± 0.62 | 898.29 ± 0.64 | 890.46 ± 0.67
x1 = 0.3873 | 936.59 ± 0.54 | 932.06 ± 0.56 | 927.29 ± 0.57 | 918.79 ± 0.6 | 911.14 ± 0.62
x1 = 0.4267 | 948.75 ± 0.51 | 944.16 ± 0.53 | 939.38 ± 0.54 | 930.92 ± 0.57 | 923.4 ± 0.6
x1 = 0.4882 | 967 ± 1 | 962.32 ± 0.49 | 957.53 ± 0.5 | 949.14 ± 0.53 | 941.81 ± 0.55
x1 = 0.5237 | 976.91 ± 0.45 | 972.17 ± 0.46 | 967.38 ± 0.47 | 959.03 ± 0.5 | 951.82 ± 0.52
x1 = 0.5894 | 994.19 ± 0.4 | 989.37 ± 0.42 | 984.57 ± 0.43 | 976.32 ± 0.45 | 969.32 ± 0.47
x1 = 0.6422 | 1007.31 ± 0.41 | 1002.43 ± 0.4 | 997.63 ± 0.4 | 989.46 ± 0.42 | 982.63 ± 0.44
x1 = 0.6899 | 1018.36 ± 0.46 | 1013.43 ± 0.44 | 1008.64 ± 0.42 | 1000.53 ± 0.4 | 993.87 ± 0.41
x1 = 0.7439 | 1030.26 ± 0.51 | 1025.27 ± 0.49 | 1020.49 ± 0.47 | 1012.47 ± 0.44 | 1005.99 ± 0.42
x1 = 0.7855 | 1038.88 ± 0.54 | 1033.86 ± 0.52 | 1029.09 ± 0.51 | 1021.13 ± 0.48 | 1014.79 ± 0.46
x1 = 0.8238 | 1046.42 ± 0.57 | 1041.36 ± 0.56 | 1036.59 ± 0.54 | 1028.7 ± 0.5 | 1022.49 ± 0.49
x1 = 0.8841 | 1057.54 ± 0.62 | 1052.43 ± 0.61 | 1047.69 ± 0.59 | 1039.9 ± 0.6 | 1033.9 ± 0.5
x1 = 0.9247 | 1064.51 ± 0.66 | 1059.37 ± 0.64 | 1054.64 ± 0.62 | 1046.93 ± 0.6 | 1041.06 ± 0.57
x1 = 0.9544 | 1069.21 ± 0.68 | 1064.05 ± 0.66 | 1059.33 ± 0.65 | 1051.68 ± 0.62 | 1045.92 ± 0.6
x1 = 0.9844 | 1074.11 ± 0.7 | 1068.93 ± 0.69 | 1064.23 ± 0.67 | 1056.62 ± 0.64 | 1050.96 ± 0.62

OCCN1CCOCC1 [4-morpholineethanol] + CCC(C)O
mass density [kg/m3]
Conditions | 293.15 K | 298.15 K | 303.15 K | 313.15 K | 323.15 K
x1 = 0.0542 | 824.77 ± 0.83 | 821.68 ± 0.84 | 817.07 ± 0.86 | 809.49 ± 0.88 | 804.37 ± 0.9
x1 = 0.1098 | 843.95 ± 0.78 | 840.73 ± 0.79 | 836.08 ± 0.8 | 828.46 ± 0.83 | 823.27 ± 0.84
x1 = 0.1855 | 869.23 ± 0.71 | 865.83 ± 0.72 | 861.15 ± 0.74 | 853.47 ± 0.76 | 848.18 ± 0.78
x1 = 0.2431 | 887.71 ± 0.66 | 884.17 ± 0.67 | 879.46 ± 0.69 | 871.75 ± 0.71 | 866.4 ± 0.73
x1 = 0.2876 | 901.62 ± 0.63 | 897.97 ± 0.64 | 893.25 ± 0.65 | 885.52 ± 0.68 | 880.12 ± 0.69
x1 = 0.3266 | 913.58 ± 0.6 | 909.84 ± 0.61 | 905.11 ± 0.62 | 897.36 ± 0.65 | 891.91 ± 0.66
x1 = 0.3854 | 930.89 ± 0.56 | 927.02 ± 0.57 | 922.28 ± 0.58 | 914.51 ± 0.6 | 909.01 ± 0.62
x1 = 0.4277 | 943.01 ± 0.53 | 939.04 ± 0.54 | 934.29 ± 0.55 | 926.51 ± 0.58 | 920.97 ± 0.59
x1 = 0.4822 | 958.03 ± 0.5 | 953.95 ± 0.51 | 949.18 ± 0.52 | 941.4 ± 0.54 | 935.81 ± 0.56
x1 = 0.5189 | 967.85 ± 0.47 | 963.68 ± 0.48 | 958.92 ± 0.5 | 951.14 ± 0.52 | 945.51 ± 0.53
x1 = 0.5672 | 980.37 ± 0.44 | 976.09 ± 0.45 | 971.33 ± 0.47 | 963.55 ± 0.49 | 957.89 ± 0.5
x1 = 0.6044 | 989.72 ± 0.42 | 985.36 ± 0.43 | 980.59 ± 0.44 | 972.82 ± 0.46 | 967.14 ± 0.48
x1 = 0.6438 | 999.36 ± 0.39 | 994.93 ± 0.4 | 990.17 ± 0.42 | 982.4 ± 0.44 | 976.69 ± 0.46
x1 = 0.6798 | 1007.93 ± 0.42 | 1003.44 ± 0.41 | 998.68 ± 0.4 | 990.92 ± 0.42 | 985.19 ± 0.44
x1 = 0.7355 | 1020.77 ± 0.47 | 1016.16 ± 0.46 | 1011.41 ± 0.44 | 1003.67 ± 0.41 | 997.91 ± 0.41
x1 = 0.7942 | 1033.69 ± 0.53 | 1028.98 ± 0.51 | 1024.24 ± 0.49 | 1016.52 ± 0.47 | 1010.73 ± 0.45
x1 = 0.8427 | 1044.13 ± 0.57 | 1039.33 ± 0.55 | 1034.6 ± 0.54 | 1026.9 ± 0.51 | 1021.09 ± 0.49
x1 = 0.8785 | 1051.72 ± 0.6 | 1046.85 ± 0.59 | 1042.13 ± 0.57 | 1034.45 ± 0.54 | 1028.62 ± 0.52
x1 = 0.9235 | 1061.1 ± 0.6 | 1056.15 ± 0.63 | 1051.43 ± 0.61 | 1043.77 ± 0.58 | 1037.92 ± 0.56
x1 = 0.9844 | 1073.45 ± 0.7 | 1068.39 ± 0.68 | 1063.69 ± 0.67 | 1056.06 ± 0.64 | 1050.18 ± 0.62
